According to ChEMBL document CHEMBL1140020, “Synthesis and biological evaluation of 4'-(6,7-disubstituted-2,4-dihydro-indeno[1,2-c]pyrazol-3-yl)-biphenyl-4-ol as potent Chk1 inhibitors” (Bioorg Med Chem Lett, 2007):
pEC50, pIC50: −log10 of the molar value. Active and inactive are the calls of the source. The rule behind the calls is not given here.

What was measured:
[1] = target: T1, Serine/threonine-protein kinase Chk1 (Homo sapiens, UniProt O14757); assay: Inhibition of Chk1
T1 sequence (O14757 whole entry): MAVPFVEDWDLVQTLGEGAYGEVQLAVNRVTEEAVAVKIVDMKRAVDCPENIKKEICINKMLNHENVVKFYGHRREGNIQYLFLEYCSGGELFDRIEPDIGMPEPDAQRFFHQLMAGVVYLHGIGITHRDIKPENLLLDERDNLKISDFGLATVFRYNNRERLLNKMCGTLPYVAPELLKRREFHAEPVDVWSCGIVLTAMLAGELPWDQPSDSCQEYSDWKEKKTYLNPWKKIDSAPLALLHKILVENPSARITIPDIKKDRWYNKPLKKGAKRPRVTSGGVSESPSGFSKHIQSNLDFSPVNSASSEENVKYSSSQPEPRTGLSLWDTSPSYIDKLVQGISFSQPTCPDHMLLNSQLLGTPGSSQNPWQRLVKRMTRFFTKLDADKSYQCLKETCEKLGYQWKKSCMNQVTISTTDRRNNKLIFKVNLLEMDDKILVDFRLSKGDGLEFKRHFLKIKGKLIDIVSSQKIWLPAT

HeLa = assay: Cytotoxicity against HeLa cells by MTS assay; format: cell-based; settings: Homo sapiens
SW-620 = assay: Inhibition of camptothecin-induced cell cycle arrest in SW620 cells by accumulation at S phase by FACS analysis; format: functional, cell-based; settings: Homo sapiens
NCI-H1299 = assay: Inhibition of doxorubicin-induced cell cycle arrest in H1299 cells by accumulation at G2/M phase by FACS analysis; format: functional, cell-based; settings: Homo sapiens
[2] = Cell cycle arrest in H1299 cells by accumulation at G2/M phase by FACS analysis; format: functional, cell-based; settings: Homo sapiens, NCI-H1299

Compound	pIC50 [1]	pEC50 (HeLa)	also measured
COc1cc2c(cc1OC(=O)NCCN1CCOCC1)-c1[nH]nc(-c3ccc(-c4ccc(O)cc4)cc3)c1C2	7.13		
COc1cc2c(cc1OCCN1CCCC1)Cc1c(-c3ccc(-c4ccc(O)cc4)cc3)n[nH]c1-2	9.10		
COc1cc2c(cc1OCCN1CCOCC1)Cc1c(-c3ccc(-c4ccc(O)cc4)cc3)n[nH]c1-2	8.70		
COc1cc2c(cc1OCCCN1CCOCC1)Cc1c-2n[nH]c1-c1ccc(-c2ccc(O)cc2)cc1	8.22	5.37	
COc1cc2c(cc1OCCc1cccnc1)Cc1c(-c3ccc(-c4ccc(O)cc4)cc3)n[nH]c1-2	7.89		
COc1cc2c(cc1OC(=O)NCc1ccccn1)-c1[nH]nc(-c3ccc(-c4ccc(O)cc4)cc3)c1C2	7.32		
COc1cc2c(cc1OCCCN1CCN(c3cccc(Cl)c3)CC1)-c1n[nH]c(-c3ccc(-c4ccc(O)cc4)cc3)c1C2	8.00		
COc1cc2c(cc1OCCC1CCCN1C)-c1[nH]nc(-c3ccc(-c4ccc(O)cc4)cc3)c1C2 (stereo unspecified)	9.10		
COc1cc2c(cc1OCCN1CCOCC1)-c1n[nH]c(-c3ccc(-c4ccc(O)cc4)cc3)c1C2	8.30		
COc1cc2c(cc1OCCN(C)C)-c1[nH]nc(-c3ccc(-c4ccc(O)cc4)cc3)c1C2	9.10		
COc1cc2c(cc1OC(=O)NCCN1CCCC1)-c1[nH]nc(-c3ccc(-c4ccc(O)cc4)cc3)c1C2	7.68		
COc1cc2c(cc1OC)-c1n[nH]c(-c3ccc(-c4ccc(O)cc4)cc3)c1C2		< 4.23	Activity (SW-620): Active; pEC50 (NCI-H1299): 6.70; pEC50 [2]: < 4.30
COc1cc2c(cc1OCCn1ccnc1)-c1n[nH]c(-c3ccc(-c4ccc(O)cc4)cc3)c1C2	8.52	5.72	
COc1cc2c(cc1OCC[C@@H]1CCCN1)Cc1c(-c3ccc(-c4ccc(O)cc4)cc3)n[nH]c1-2	8.70		
CCN(CC)CC(CN(CC)CC)Oc1cc2c(cc1OC)Cc1c(-c3ccc(-c4ccc(O)cc4)cc3)n[nH]c1-2	8.70		
COc1cc2c(cc1OCCn1ccnc1)Cc1c-2n[nH]c1-c1ccc(-c2ccc(O)cc2)cc1	8.30		
COc1cc2c(cc1OCc1ccncc1)Cc1c-2n[nH]c1-c1ccc(-c2ccc(O)cc2)cc1	8.10	5.49	
COc1cc2c(cc1OCCc1ccccn1)Cc1c-2n[nH]c1-c1ccc(-c2ccc(O)cc2)cc1	7.52	5.47	pEC50 (NCI-H1299): 6.22; pEC50 [2]: < 5.00

Compound	pIC50 [1]	pEC50 (HeLa)	also measured
CCN1CCCC(Oc2cc3c(cc2OC)Cc2c-3n[nH]c2-c2ccc(-c3ccc(O)cc3)cc2)C1 (stereo unspecified)	9.22		
COc1cc2c(cc1OCCc1ccncc1)Cc1c-2n[nH]c1-c1ccc(-c2ccc(O)cc2)cc1	8.30		
COc1cc2c(cc1OCc1cccnc1)-c1n[nH]c(-c3ccc(-c4ccc(O)cc4)cc3)c1C2	7.64	4.45	pEC50 (NCI-H1299): 6.52; pEC50 [2]: < 4.30
COc1cc2c(cc1OCCN1CCCCC1)Cc1c-2n[nH]c1-c1ccc(-c2ccc(O)cc2)cc1	9.00		
COc1cc2c(cc1OCCCN1CCN(c3ccccc3OC)CC1)Cc1c(-c3ccc(-c4ccc(O)cc4)cc3)n[nH]c1-2	7.60		
COc1cc2c(cc1OC1CCOCC1)Cc1c(-c3ccc(-c4ccc(O)cc4)cc3)n[nH]c1-2	9.70		
COc1cc2c(cc1CCOCCCc1cccc(C)n1)Cc1c-2n[nH]c1-c1ccc(-c2ccc(O)cc2)cc1	7.21	5.39	pEC50 (NCI-H1299): 6.40; pEC50 [2]: < 5.00
COc1cc2c(cc1OC(=O)NCCN(C)C)-c1[nH]nc(-c3ccc(-c4ccc(O)cc4)cc3)c1C2	7.40		
COc1cc2c(cc1OC[C@H]1CC=CCC1)Cc1c-2n[nH]c1-c1ccc(-c2ccc(O)cc2)cc1	9.15		
COc1cc2c(cc1OCc1ccncc1)-c1[nH]nc(-c3ccc(-c4ccc(O)cc4)cc3)c1C2	7.44		
COc1cc2c(cc1OCCN1CCCC1)-c1[nH]nc(-c3ccc(-c4ccc(O)cc4)cc3)c1C2	8.70		
COc1cc2c(cc1OCCCN1CCCCC1)Cc1c-2n[nH]c1-c1ccc(-c2ccc(O)cc2)cc1	8.40	5.64	pEC50 (NCI-H1299): 6.40; pEC50 [2]: < 5.00
COc1cc2c(cc1OCc1ccccn1)Cc1c(-c3ccc(-c4ccc(O)cc4)cc3)n[nH]c1-2	7.70		
COc1cc2c(cc1OCCCN1CCN(c3cccc(Cl)c3)CC1)Cc1c-2n[nH]c1-c1ccc(-c2ccc(O)cc2)cc1	8.10		
CCc1ccc(CCOc2cc3c(cc2OC)-c2n[nH]c(-c4ccc(-c5ccc(O)cc5)cc4)c2C3)nc1	7.64	4.53	pEC50 (NCI-H1299): 6.30; pEC50 [2]: < 5.00
COc1cc2c(cc1OCCCN1CCN(C)CC1)-c1n[nH]c(-c3ccc(-c4ccc(O)cc4)cc3)c1C2	9.70		
COc1cc2c(cc1OCc1cccnc1)Cc1c-2n[nH]c1-c1ccc(-c2ccc(O)cc2)cc1	7.74	< 4.23	

Further lines, with some results ahead:

pIC50 [1]	Compound	pEC50 (HeLa)	also measured
6.54	COc1cc2c(cc1OC(F)(F)F)-c1[nH]nc(-c3ccc(-c4ccc(O)cc4)cc3)c1C2		
9.40	COc1cc2c(cc1OC1CCOC1)Cc1c-2n[nH]c1-c1ccc(-c2ccc(O)cc2)cc1 (stereo unspecified)	4.31	
9.22	COc1cc2c(cc1OCC(C)CN(C)C)-c1n[nH]c(-c3ccc(-c4ccc(O)cc4)cc3)c1C2 (stereo unspecified)	5.80	
8.70	COc1cc2c(cc1OCCN(C)C)Cc1c-2n[nH]c1-c1ccc(-c2ccc(O)cc2)cc1		
10.00	COc1cc2c(cc1OC[C@H](O)CO)Cc1c-2n[nH]c1-c1ccc(-c2ccc(O)cc2)cc1	5.11	pEC50 (NCI-H1299): 6.70; pEC50 [2]: < 4.30
7.62	COc1cc2c(cc1OCc1ccccn1)-c1n[nH]c(-c3ccc(-c4ccc(O)cc4)cc3)c1C2	< 4.23	pEC50 (NCI-H1299): 6.10; pEC50 [2]: < 4.30
8.30	COc1cc2c(cc1O)-c1[nH]nc(-c3ccc(-c4ccc(O)cc4)cc3)c1C2		
10.00	COc1cc2c(cc1OC[C@@H](O)CO)Cc1c-2n[nH]c1-c1ccc(-c2ccc(O)cc2)cc1	5.46	
9.15	COc1cc2c(cc1OCCCN(C)C)Cc1c-2n[nH]c1-c1ccc(-c2ccc(O)cc2)cc1	6.10	
9.00	COc1cc2c(cc1O)Cc1c(-c3ccc(-c4ccc(O)cc4)cc3)n[nH]c1-2		
> 10.00	COc1cc2c(cc1OC(CO)CO)Cc1c-2n[nH]c1-c1ccc(-c2ccc(O)cc2)cc1		
8.70	COc1cc2c(cc1OC(C)CN(C)C)Cc1c-2n[nH]c1-c1ccc(-c2ccc(O)cc2)cc1 (stereo unspecified)		
8.70	COc1cc2c(cc1OC(C)CN(C)C)-c1n[nH]c(-c3ccc(-c4ccc(O)cc4)cc3)c1C2 (stereo unspecified)		
9.10	COc1cc2c(cc1OCC1CCOC1)Cc1c-2n[nH]c1-c1ccc(-c2ccc(O)cc2)cc1 (stereo unspecified)		
